Results on five compounds are retold here after PubChem BioAssay (NCI).

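Dose response: 5 concentrations. Exposure: 48 h. Format: 96-well plates. Endpoint: linear interpolation; highest concentration if not reached. At the GI50, growth is halved. TGI is the concentration that stops growth completely.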

Among the test systems are CAKI-1 renal; DU-145 prostate; HCC-2998 colon; MCF7 breast; MDA-MB-231 breast; MOLT-4 leukemia; OVCAR-3 ovarian; OVCAR-5 ovarian; SF-539 CNS; UO-31 renal.
Common to all, as to assay: NCI tumour cell line growth inhibition, 48 h

Regarding `O=C(Nc1nc(-c2ccc(Cl)cc2)nc2c1sc(=S)n2-c1ccccc1)C(F)(F)F`, the GI50 in the assay on CAKI-1 renal was 4 µM; in the assay with DU-145 prostate, 4.32 µM; in the assay on HCC-2998 colon, 10.3 µM; in the assay with MCF7 breast it was 10.2 µM; in the assay on MDA-MB-231 breast it was 3.64 µM; in the assay on MOLT-4 leukemia it was greater than 100 µM. For the same compound, the GI50 in the assay on OVCAR-3 ovarian was 2.81 µM; with OVCAR-5 ovarian, 6.23 µM; with SF-539 CNS, 1.98 µM; in the assay with UO-31 renal, 1.87 µM. The TGI in the assay on CAKI-1 renal was 16 µM; with DU-145 prostate, 25.3 µM; in the assay on HCC-2998 colon, greater than 100 µM; in the assay on MCF7 breast it was greater than 100 µM; with MDA-MB-231 breast it was 12.5 µM; in the assay on MOLT-4 leukemia, greater than 100 µM. Also, the TGI in the assay with OVCAR-3 ovarian came out at 6.97 µM; with OVCAR-5 ovarian it was 26.6 µM; in the assay with SF-539 CNS it was 3.88 µM; in the assay on UO-31 renal it was 4.04 µM.
For `O=C(Nc1cccc(Cl)c1)c1cc(N=Nc2ccc([N+](=O)[O-])cc2Cl)ccc1O`, the GI50 in the assay with CAKI-1 renal is 1.93 µM; with DU-145 prostate it was 1.43 µM; with HCC-2998 colon, 1.95 µM; in the assay on MCF7 breast, 2.03 µM; in the assay on MDA-MB-231 breast, 2.03 µM; with MOLT-4 leukemia, 1.74 µM. Besides, the GI50 in the assay on OVCAR-3 ovarian was 1.06 µM; in the assay on OVCAR-5 ovarian it was 2.81 µM; with SF-539 CNS, 2.41 µM; with UO-31 renal, 2.16 µM. The TGI came out at 4.02 µM in the assay on CAKI-1 renal; 8.72 µM in the assay on DU-145 prostate; 5.53 µM with HCC-2998 colon; 5.79 µM in the assay with MCF7 breast; 5.27 µM in the assay with MDA-MB-231 breast; 4.4 µM with MOLT-4 leukemia. For the same compound, the TGI with OVCAR-3 ovarian was found to be 4.38 µM; with OVCAR-5 ovarian, 10.6 µM; in the assay on SF-539 CNS, 8.61 µM; with UO-31 renal, 6.08 µM.
Regarding `COc1ccc(/C=C2\CC(C)CC3C2=NN(c2ccccc2)C3c2ccc(OC)c(OC)c2)cc1OC` (stereo not given), the GI50 with CAKI-1 renal is 6.47 µM; with DU-145 prostate it was 4.17 µM; in the assay on HCC-2998 colon, 1.69 µM; with MCF7 breast, 3.23 µM; in the assay with MDA-MB-231 breast, 3.24 µM; in the assay on MOLT-4 leukemia it was 2.69 µM. In addition, the GI50 was 3.71 µM in the assay with OVCAR-3 ovarian, 3.16 µM in the assay with OVCAR-5 ovarian, 4.46 µM with SF-539 CNS and 5.75 µM with UO-31 renal. Besides, the TGI was greater than 100 µM in the assay on CAKI-1 renal; greater than 100 µM with DU-145 prostate; 3.13 µM in the assay with HCC-2998 colon; 42.6 µM in the assay on MCF7 breast; 13.2 µM with MDA-MB-231 breast; 92.4 µM with MOLT-4 leukemia. The TGI in the assay with OVCAR-3 ovarian is greater than 100 µM; in the assay with OVCAR-5 ovarian, 12.1 µM; in the assay on SF-539 CNS, 24.9 µM; with UO-31 renal, greater than 100 µM.
As to `CC[C@]12C=CCN3CC[C@@]4(c5ccc(OC)cc5N(C)[C@H]4[C@@](O)(C(=O)OC)[C@@H]1OC(=O)CCC(=O)N[C@H](Cc1c[nH]c4ccccc14)C(=O)OC)[C@@H]32`, the GI50 with CAKI-1 renal is 3.65 µM; in the assay on DU-145 prostate, 4.44 µM; with HCC-2998 colon it was 6.01 µM; in the assay on MCF7 breast, 2.98 µM; in the assay with MDA-MB-231 breast, 2.83 µM; in the assay on MOLT-4 leukemia, 3.25 µM. Moreover, the GI50 was 3.8 µM with OVCAR-3 ovarian, 14.1 µM in the assay on OVCAR-5 ovarian, 2.63 µM with SF-539 CNS and 2.97 µM with UO-31 renal. Further, the TGI is 17 µM with CAKI-1 renal; 20.3 µM in the assay on DU-145 prostate; 37.9 µM in the assay with HCC-2998 colon; 16.1 µM in the assay on MCF7 breast; 9.54 µM in the assay with MDA-MB-231 breast; greater than 100 µM in the assay with MOLT-4 leukemia. For the same compound, the TGI in the assay with OVCAR-3 ovarian was 16.4 µM; in the assay with OVCAR-5 ovarian, 45 µM; in the assay on SF-539 CNS it was 7.06 µM; with UO-31 renal, 13.7 µM.
On to `Cc1cc(NNC(=O)c2ccccc2O)nc(Nc2nc3ccccc3o2)n1`, for which the GI50 in the assay with CAKI-1 renal was 1.73 µM; in the assay with DU-145 prostate, 1.83 µM; with HCC-2998 colon, 2.13 µM; with MCF7 breast, 1.88 µM; with MDA-MB-231 breast, 0.71 µM; with MOLT-4 leukemia it was 1.31 µM. Also, the GI50 in the assay on OVCAR-3 ovarian is 2.06 µM; in the assay on OVCAR-5 ovarian, 2.52 µM; with SF-539 CNS it was 1.41 µM; with UO-31 renal, 0.622 µM. In addition, the TGI with CAKI-1 renal was determined as 14.3 µM; in the assay on DU-145 prostate it was 18.3 µM; in the assay on HCC-2998 colon, 13.8 µM; in the assay with MCF7 breast, 20.7 µM; in the assay on MDA-MB-231 breast it was 16.2 µM; with MOLT-4 leukemia, 7.88 µM. The TGI in the assay on OVCAR-3 ovarian is 15.6 µM; in the assay with OVCAR-5 ovarian, 15.9 µM; in the assay with SF-539 CNS it was 11.2 µM; in the assay with UO-31 renal, 1.91 µM.
